Experimental data reported in the supplement of paper PMC11061612.

Columns and labels:
Test in all cases: combination Emax (second highest fraction inhibited in the dose matrix, 72 h); higher = more inhibition; extreme values may be limits of the assay
[1] = test system: 8305C (Thyroid Gland Carcinoma)
Outline: (§1)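 Bliss excess equals the observed combination effect minus the expected value EA + EB − EA·EB, where EA and EB are the effects of each agent alone. Combination Emax is the second-highest inhibition within the matrix. Inhibition was scaled from CellTiter-Glo 2.0 luminescence, with 0 set by vehicle wells and 1 by blank wells, after 72 hours of two-drug dosing of cells plated in 1536-well plates.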

[2] = test system: CAL-54 (Kidney Carcinoma)
Outline: as §1

[3] = test system: CAPAN-1 (Pancreatic Carcinoma)
Outline: as §1

[4] = test system: HARA (Squamous Cell Lung Carcinoma)
Outline: as §1

[5] = test system: HDLM-2 (Hodgkin's Lymphoma)
Outline: as §1

[6] = test system: HMV-II (Melanoma)
Outline: as §1

[7] = test system: HO-1-u-1 (Oral Cavity Carcinoma)
Outline: as §1

[8] = test system: Hs-633T (Other Solid Carcinomas)
Outline: as §1

[9] = test system: LoVo (Colorectal Carcinoma)
Outline: as §1

[10] = test system: Mewo (Melanoma)
Outline: as §1

[11] = test system: NB14 (Neuroblastoma)
Outline: as §1

[12] = test system: NCI-H2461 (Mesothelioma)
Outline: as §1

[13] = test system: NCI-H2795 (Mesothelioma)
Outline: as §1

[14] = test system: NCI-H28 (Mesothelioma)
Outline: as §1

[15] = test system: NCI-H69 (Small Cell Lung Carcinoma)
Outline: as §1

[16] = test system: RKO (Colorectal Carcinoma)
Outline: as §1

[17] = test system: SK-OV-3 (Ovarian Carcinoma)
Outline: as §1

[18] = test system: SU-DHL-6 (B-Cell Non-Hodgkin's Lymphoma)
Outline: as §1

[19] = test system: SUP-T1 (T-Lymphoblastic Leukemia)
Outline: as §1

[20] = test system: SW1116 (Colorectal Carcinoma)
Outline: as §1

| Compound | combination Emax [1] | combination Emax [2] | combination Emax [3] | combination Emax [4] | combination Emax [5] | combination Emax [6] | combination Emax [7] | combination Emax [8] | combination Emax [9] | combination Emax [10] | combination Emax [11] | combination Emax [12] | combination Emax [13] | combination Emax [14] | combination Emax [15] | combination Emax [16] | combination Emax [17] | combination Emax [18] | combination Emax [19] | combination Emax [20] |
| --- | --- | --- | --- | --- | --- | --- | --- | --- | --- | --- | --- | --- | --- | --- | --- | --- | --- | --- | --- | --- |
| CN(CCO)CC[C@H](CSc1ccccc1)Nc1ccc(S(=O)(=O)NC(=O)c2ccc(N3CCC([C@@H](O)c4ccccc4-c4ccc(Cl)cc4)CC3)cc2)cc1S(=O)(=O)C(F)(F)F [AZD4320] + C[C@@H](Nc1cc(F)cc(F)c1)c1cc(C(=O)N(C)C)cc2c(=O)cc(N3CCOCC3)oc12 [AZD8186] (first compound max 1 µM, 7x7, partner max 3 µM) | 0.669 | 0.593 | 0.552 | 0.361 | 0.847 | 0.383 | 0.369 | 0.503 | 0.6 | 0.332 | 1 | 0.337 | 0.779 | 0.297 | 0.885 | 0.32 | 0.407 | 1 | 0.887 | 0.275 |
| CN(CCO)CC[C@H](CSc1ccccc1)Nc1ccc(S(=O)(=O)NC(=O)c2ccc(N3CCC([C@@H](O)c4ccccc4-c4ccc(Cl)cc4)CC3)cc2)cc1S(=O)(=O)C(F)(F)F [AZD4320] + CC(=O)O[C@H]1C(=O)[C@@]2(C)[C@H]([C@H](OC(=O)c3ccccc3)[C@]3(O)C[C@H](OC(=O)[C@H](O)[C@@H](NC(=O)c4ccccc4)c4ccccc4)C(C)=C1C3(C)C)[C@]1(OC(C)=O)CO[C@@H]1C[C@@H]2O [Paclitaxel] (first compound max 1 µM, 7x7, partner max 3 µM) | 0.846 | 0.773 | 0.874 | 0.999 | 1 | 0.853 | 0.965 | 1 | 0.746 | 0.78 | 1 | 0.75 | 0.837 | 0.823 | 0.991 | 1 | 0.978 | 1 | 0.852 | 0.586 |
| N#Cc1cnc(Nc2cc(NC[C@H]3CNCCO3)c(C(F)(F)F)cn2)cn1 [SRA737] + C=CCn1c(=O)c2cnc(Nc3ccc(N4CCN(C)CC4)cc3)nc2n1-c1cccc(C(C)(C)O)n1 [AZD1775] (first compound max 10 µM, partner max 1 µM) | 0.553 | 0.749 | 0.507 | 0.983 | 0.697 | 0.53 | 0.924 | 0.79 | 0.852 | 0.638 | 0.997 | 0.709 | 0.707 | 0.617 | 0.756 | 0.957 | 0.572 | 0.933 | 0.766 | 0.405 |
| C[C@@H](Nc1cc(F)cc(F)c1)c1cc(C(=O)N(C)C)cc2c(=O)cc(N3CCOCC3)oc12 [AZD8186] + C1CN(CCC1(C(=O)N[C@@H](CCO)C2=CC=C(C=C2)Cl)N)C3=NC=NC4=C3C=CN4 [AZD5363] (first compound max 10 µM, 7x7, partner max 10 µM) | 0.369 | 0.683 | 0.204 | 0.467 | 0.235 | 0.229 | 0.752 | 0.297 | 0.644 | 0.345 | 0.213 | 0.457 | 0.409 | 0.359 | 0.536 | 0.433 | 0.426 | 1 | 0.553 | 0.206 |
| C[C@@H]1COCCN1c1cc(C2([S@](C)(=N)=O)CC2)nc(-c2ccnc3[nH]ccc23)n1 [AZD6738] + Nc1ccn([C@@H]2O[C@H](CO)[C@@H](O)C2(F)F)c(=O)n1 [Gemcitabine] (first compound max 10 µM, 7x7, partner max 0.3 µM) | 0.721 | 0.819 | 0.684 | 0.927 | 0.77 | 0.724 | 0.926 | 0.937 | 0.846 | 0.768 | 1 | 0.714 | 0.874 | 0.695 | 0.851 | 0.954 | 0.625 | 0.945 | 0.852 | 0.553 |
| CN(CCO)CC[C@H](CSc1ccccc1)Nc1ccc(S(=O)(=O)NC(=O)c2ccc(N3CCC([C@@H](O)c4ccccc4-c4ccc(Cl)cc4)CC3)cc2)cc1S(=O)(=O)C(F)(F)F [AZD4320] + CS(=O)(=O)CCNCc1ccc(-c2ccc3ncnc(Nc4ccc(OCc5cccc(F)c5)c(Cl)c4)c3c2)o1 [Lapatinib] (first compound max 1 µM, 7x7, partner max 10 µM) | 0.677 | 0.951 | 0.6 | 0.906 | 0.985 | 0.773 | 0.983 | 0.452 | 0.562 | 0.492 | 0.993 | 0.512 | 0.71 | 0.826 | 0.997 | 0.477 | 0.869 | 0.997 | 0.866 | 0.823 |
| O=C(c1cc(Cc2n[nH]c(=O)c3ccccc23)ccc1F)N1CCN(C(=O)C2CC2)CC1 [Olaparib] + CC1(C)CCC(CN2CCN(c3ccc(C(=O)NS(=O)(=O)c4ccc(NCC5CCOCC5)c([N+](=O)[O-])c4)c(Oc4cnc5[nH]ccc5c4)c3)CC2)=C(c2ccc(Cl)cc2)C1 [Venetoclax] (first compound max 10 µM, 7x7, partner max 1 µM) | 0.232 | 0.177 | 0.225 | 0.137 | 0.322 | 0.129 | 0.117 | 0.186 | 0.206 | 0.0337 | 0.465 | 0.203 | 0.284 | 0.118 | 0.614 | 0.191 | 0.139 | 0.719 | 0.479 | 0.097 |
| Cc1cc2ncnn2cc1Nc1ncc2c(n1)n(C1CCOCC1)c(=O)n2C [AZD7648] + COc1cc([C@@H]2c3cc4c(cc3[C@@H](O[C@@H]3O[C@@H]5CO[C@@H](C)O[C@H]5[C@H](O)[C@H]3O)[C@H]3COC(=O)[C@H]23)OCO4)cc(OC)c1O [Etoposide] (first compound max 10 µM, 7x7, partner max 10 µM) | 0.465 | 0.731 | 0.492 | 0.627 | 0.715 | 0.655 | 0.866 | 0.842 | 0.704 | 0.71 | 0.912 | 0.553 | 0.686 | 0.425 | 0.67 | 0.829 | 0.399 | 0.991 | 0.85 | 0.192 |
| Cc1c2c(nn1C)CSCc1cc(n(C)n1)CSc1cc(c3ccccc3c1)OCCCc1c(C(=O)O)n(C)c3c-2c(Cl)ccc13 [AZD5991] + Nc1ccn([C@@H]2O[C@H](CO)[C@@H](O)C2(F)F)c(=O)n1 [Gemcitabine] (first compound max 1 µM, 7x7, partner max 0.3 µM) | 0.374 | 0.724 | 0.608 | 0.81 | 0.967 | 0.595 | 0.378 | 0.837 | 0.713 | 0.465 | 0.853 | 0.553 | 0.869 | 0.684 | 0.457 | 0.936 | 0.341 | 1 | 0.77 | 0.203 |
| CN(CCO)CC[C@H](CSc1ccccc1)Nc1ccc(S(=O)(=O)NC(=O)c2ccc(N3CCC([C@@H](O)c4ccccc4-c4ccc(Cl)cc4)CC3)cc2)cc1S(=O)(=O)C(F)(F)F [AZD4320] + Nc1ccn([C@@H]2O[C@H](CO)[C@@H](O)C2(F)F)c(=O)n1 [Gemcitabine] (first compound max 1 µM, 7x7, partner max 0.3 µM) | 0.625 | 0.838 | 0.828 | 0.8 | 0.935 | 0.619 | 0.563 | 0.992 | 0.7 | 0.451 | 0.993 | 0.641 | 0.872 | 0.797 | 0.946 | 0.928 | 0.308 | 0.998 | 0.846 | 0.184 |
| C[C@@H](Oc1cc(-c2cnn(C3CCNCC3)c2)cnc1N)c1c(Cl)ccc(F)c1Cl [Crizotinib] + CC1=C(C(=CC=C1)Cl)NC(=O)C2=CN=C(S2)NC3=CC(=NC(=N3)C)N4CCN(CC4)CCO [Dasatinib] (first compound max 10 µM, 7x7, partner max 2 µM) | 0.843 | 0.888 | 0.285 | 0.757 | 0.226 | 0.768 | 0.863 | 1 | 0.505 | 0.481 | 0.976 | 0.594 | 0.918 | 0.772 | 0.771 | 0.771 | 0.391 | 1 | 0.837 | 0.619 |
